Source: patent publication US6893846B2, “Primers for use in detecting beta-lactamases” (priority 1998, dated 2005)

What was measured:
SHV and TEM genes [1] = test: PCR amplification with TEM and SHV primers; parameters: species or system Klebsiella pneumoniae
Procedure: (§1) The organisms were inoculated into 5 ml of Luria Bertani (LB) broth (Difco, Detroit, Mich.) and incubated for 20 hours at 37° C. with shaking. Cells from 1.5 ml of overnight culture were harvested by centrifugation at 17,310×g in an Hermle centrifuge for 5 minutes. After the supernatant was decanted, the pellet was resuspended in 500 μl of distilled water. The cells were lysed by heating at 95° C. for 10 minutes and cellular debris was removed by centrifugation for 5 minutes at 17,310×g. The supernatant was used as source of template for amplification.
(§2) The following oligonucleotide primers specific for the SHV and TEM genes were designed by using MacVector version 4.5 (Kodak/IBI): SHV genes: A [5′-([…])-3′] (SEQ ID NO:10) and B [5′-([…])-3′] (SEQ ID NO:11) corresponding to nucleotide numbers 103 to 121 and 988 to 970, respectively, of Mercier et al., Antibicrob. Agents Chemother. 34:1577-1583 (1990)); TEM genes: C [5′-([…])-3′ (SEQ ID NO:5) and D [5′-([…])-3′ (SEQ ID NO:1) corresponding to nucleotide numbers 90 to 105 and 1062 to 1042, respectively, of Sutcliff et al., Proc. Nat. Aca. Sci. USA, 75:3737-3741 (1978). Primers A and B amplified a 885 base pair fragment while primers C and D amplified a 971 base pair fragment. The specificity of the SHV and TEM primers for amplification of SHV and TEM genes respectively was tested by using the following beta-lactamase controls; TEM-I (pACYC177), MIR-1 (from K. pneumoniae96D) and SHV-7 (pCLL3410).
PCR amplifications were carried out on a DNA Thermal Cycler 480 instrument (Perkin-Elmer, Cetus, Norwalk, Conn.) using the Gene Amp DNA amplification kit containing AmpliTaq polymerase (Perkin Elmer, Roche Molecular Systems, Inc., Branchburg, N.J.). The composition of the reaction mixture was as follows: 10 mM Tris-HCl (pH 8.3), 50 mM KCl, 0.1% TRITON X-100, 1.5 mM MgCl2, 0.2 mM (each) of the four deoxynucleoside triphosphates, and 1.2 U of AmpliTaq in a total volume of 49 μl. A total of 1 μl of sample lysate was added to the reaction mixture, and was centrifuged briefly before […] of mineral oil was layered on the surface. The PCR program consisted of an initial denaturation step at 96° C. for 15 seconds; followed by 24 cycles of DNA denaturation at 96° C. for 15 seconds, primer annealing at 50° C. for 15 seconds and primer extension at 72° C. for 2 minutes. After the last cycle the products were stored at 4° C. The PCR products (1/10 volume) were analyzed by electrophoresis using 1.4% agarose gels in TAE buffer (0.04 M Tris-acetate, 0.002 M EDTA [pH 8.5]). The gels were stained with ethidium bromide and the PCR products were visualized with ultra-violet light. […] The larger product which corresponded to the expected size of the SHV specific product was gel purified using a 1.4% agarose in TAE gel and the purified PCR product was used for sequence analysis.

SHV and TEM genes [2] = test: PCR amplification with TEM and SHV primers; parameters: species or system Escherichia coli
Procedure: as §1, §2
PCR amplifications were carried out on a DNA Thermal Cycler 480 instrument (Perkin-Elmer, Cetus, Norwalk, Conn.) using the Gene Amp DNA amplification kit containing AmpliTaq polymerase (Perkin Elmer, Roche Molecular Systems, Inc., Branchburg, N.J.). The composition of the reaction mixture was as follows: 10 mM Tris-HCl (pH 8.3), 50 mM KCl, 0.1% TRITON X-100, 1.5 mM MgCl2, 0.2 mM (each) of the four deoxynucleoside triphosphates, and 1.2 U of AmpliTaq in a total volume of 49 μl. A total of 1 μl of sample lysate was added to the reaction mixture, and was centrifuged briefly before […] of mineral oil was layered on the surface. The PCR program consisted of an initial denaturation step at 96° C. for 15 seconds; followed by 24 cycles of DNA denaturation at 96° C. for 15 seconds, primer annealing at 50° C. for 15 seconds and primer extension at 72° C. for 2 minutes. After the last cycle the products were stored at 4° C. The PCR products (1/10 volume) were analyzed by electrophoresis using 1.4% agarose gels in TAE buffer (0.04 M Tris-acetate, 0.002 M EDTA [pH 8.5]). The gels were stained with ethidium bromide and the PCR products were visualized with ultra-violet light. […]

SHV and TEM genes [3] = test: PCR amplification with TEM and SHV primers; parameters: species or system Proteus mirabilis; conditions: P. mirabilis Pit 85 (pI 5.6, TEM-26-type)
Procedure: as §1
The following oligonucleotide primers specific for the SHV and TEM genes were designed by using MacVector version 4.5 (Kodak/IBI): SHV genes: A [5′-([…])-3′] (SEQ ID NO:10) and B [5′-([…])-3′] (SEQ ID NO:11) corresponding to nucleotide numbers 103 to 121 and 988 to 970, respectively, of Mercier et al., Antibicrob. Agents Chemother. […]
PCR amplifications were carried out on a DNA Thermal Cycler 480 instrument (Perkin-Elmer, Cetus, Norwalk, Conn.) using the Gene Amp DNA amplification kit containing AmpliTaq polymerase (Perkin Elmer, Roche Molecular Systems, Inc., Branchburg, N.J.). […] The PCR products (1/10 volume) were analyzed by electrophoresis using 1.4% agarose gels in TAE buffer (0.04 M Tris-acetate, 0.002 M EDTA [pH 8.5]). […]

[4] = test system: K. pneumoniae and A. hydrophila wound infection; conditions: one patient, intravenous, after four weeks of therapy
[5] = K. pneumoniae Pit 16 (pI 5.6, TEM-26-type)
[6] = K. pneumoniae Pit 82 (pI 8.2, SHV-5)
[7] = K. pneumoniae Pit 100 (pI 7.6, SHV-2)
[8] = E. coli Pit 64 (pI 5.6, TEM-26-type)

| Substance | Amplification with primers (SHV and TEM genes [1]; [5]) | Amplification with primers (SHV and TEM genes [1]; [6]) | Amplification with primers (SHV and TEM genes [1]; [7]) | Amplification with primers (SHV and TEM genes [2]; E. coli Pit 56 (pI 7.6, SHV-2)) | Amplification with primers (SHV and TEM genes [2]; [8]) | Amplification with primers (SHV and TEM genes [3]) | clinical outcome of therapy [4] |
| --- | --- | --- | --- | --- | --- | --- | --- |
| SHV primers: primer pair A (SEQ ID NO:10) and B (SEQ ID NO:11) specific for the SHV genes (DNA 1 CACTCAAGGATGTATTGTG; DNA 2 TTAGCGTTGCCAGTGCTCG; listed as DNA, chemistry not given here) | No | Yes | Yes | Yes | No | No |  |
| TEM primers: primer pair C (SEQ ID NO:5) and D (SEQ ID NO:1) specific for the TEM genes (DNA 1 TCGGGGAAATGTGCG; DNA 2 TGCTTAATCAGTGAGGCACC; listed as DNA, chemistry not given here) | Yes | No | No | No | Yes | Yes |  |
| imipenem/cilastatin |  |  |  |  |  |  | all signs of inflammation resolved |
